Test results reported in paper PMC8459971, “Evaluation of the hepatotoxicity of the novel GPR40 (FFAR1) agonist CPL207280 in the rat and monkey” (PLoS ONE, 2021).
Where “and” joins values, the source holds several entries; their conditions need not be identical. Identical values can stand only once.

Key:
[1] = Stability in microsomes, human; type: in vitro ADME; settings: for half-life at 3 μM / microsomal CLint at 3 μM: Human microsomes, mean n = 2; for stability classification in microsomes: based on the Clint values from different species, reference ranges by Cyprotex (human range given in legend); for average DEG [%]: human microsomes, with cofactors
Protocol: The final incubation volume was 500 μL. Two control compounds (verapamil and donepezil) were included for each microsomal species, along with the appropriate vehicle control. The reactions were terminated by transferring 50 μL of incubate to 100 μL methanol containing an internal standard (metoprolol) at appropriate time points (0, 10, 20, 40, 60, and 120 min for the test compound and 0, 5, 10, 20, 40, and 60 min for the control compounds). The termination plates were centrifuged at 4000 x g at 4°C for 30 min to precipitate the protein. The supernatants were then collected for analysis, and LC-MS/MS was used for detection purposes. The system consisted of an Acquity™ Binary Solvent Manager, Acquity™ 4-position heated column manager, 2777 Ultra High Pressure Autosampler, and a Xevo-TQ MS triple quadrupole mass spectrometer (Waters Ltd., Herts, UK). This process was carried out twice.

OAT2v1 = biological target: T1, OAT2v1 (Homo sapiens, UniProt Q9Y694); assay: Uptake transporter inhibition assay, OAT2v1; type: cell-based; settings: for Accumulation (counts per minute; CPM) HEK293FT-MOCK / Accumulation (counts per minute; CPM) HEK293FT-OAT2v1: OAT2v1
T1 construct: expressed in transfected cells; host or cells: HEK cells
T1 sequence (Q9Y694 1-546 isoform Q9Y694-2): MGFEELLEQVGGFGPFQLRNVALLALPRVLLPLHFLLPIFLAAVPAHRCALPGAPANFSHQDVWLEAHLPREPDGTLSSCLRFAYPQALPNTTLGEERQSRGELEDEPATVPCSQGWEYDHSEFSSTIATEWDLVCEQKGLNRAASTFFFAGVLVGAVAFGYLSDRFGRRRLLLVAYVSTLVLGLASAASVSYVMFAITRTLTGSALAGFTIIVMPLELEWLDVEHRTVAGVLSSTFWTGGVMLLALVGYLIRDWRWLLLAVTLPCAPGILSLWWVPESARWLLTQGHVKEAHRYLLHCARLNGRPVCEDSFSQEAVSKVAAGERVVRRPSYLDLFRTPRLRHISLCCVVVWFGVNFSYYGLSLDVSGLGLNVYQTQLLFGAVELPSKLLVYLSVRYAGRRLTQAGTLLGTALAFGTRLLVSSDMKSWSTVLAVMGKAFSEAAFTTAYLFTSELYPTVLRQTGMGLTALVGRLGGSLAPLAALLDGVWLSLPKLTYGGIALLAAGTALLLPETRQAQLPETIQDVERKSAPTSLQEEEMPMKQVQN
Protocol: For the uptake transporter inhibition assay, cells were washed twice with 100 μL of the appropriate buffer (HK, pH 7.4) for OATP1B1, followed by HBSS (pH 7.4) for (NTCP, OAT1, OAT2v1, OATP1A2, and OATP1B3). Uptake experiments were carried out at 37 ± 1°C in 50 μL of the respective buffer containing the probe substrate and the compound or solvent.

OATP1A2 = OATP1A2 (Homo sapiens, UniProt P46721); assay: Uptake transporter inhibition assay, OATP1A2; settings: for Accumulation (counts per minute; CPM) HEK293FT-MOCK / Accumulation (counts per minute; CPM) HEK293FT-OATP1A2: OATP1A2;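 further: cellular uptake of a radiolabeled probe substrate in HBSS pH 7.4 at 37 °C with test compound or solvent, measured by liquid scintillation counting of cell lysates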
OATP1A2, sequence (P46721 whole entry): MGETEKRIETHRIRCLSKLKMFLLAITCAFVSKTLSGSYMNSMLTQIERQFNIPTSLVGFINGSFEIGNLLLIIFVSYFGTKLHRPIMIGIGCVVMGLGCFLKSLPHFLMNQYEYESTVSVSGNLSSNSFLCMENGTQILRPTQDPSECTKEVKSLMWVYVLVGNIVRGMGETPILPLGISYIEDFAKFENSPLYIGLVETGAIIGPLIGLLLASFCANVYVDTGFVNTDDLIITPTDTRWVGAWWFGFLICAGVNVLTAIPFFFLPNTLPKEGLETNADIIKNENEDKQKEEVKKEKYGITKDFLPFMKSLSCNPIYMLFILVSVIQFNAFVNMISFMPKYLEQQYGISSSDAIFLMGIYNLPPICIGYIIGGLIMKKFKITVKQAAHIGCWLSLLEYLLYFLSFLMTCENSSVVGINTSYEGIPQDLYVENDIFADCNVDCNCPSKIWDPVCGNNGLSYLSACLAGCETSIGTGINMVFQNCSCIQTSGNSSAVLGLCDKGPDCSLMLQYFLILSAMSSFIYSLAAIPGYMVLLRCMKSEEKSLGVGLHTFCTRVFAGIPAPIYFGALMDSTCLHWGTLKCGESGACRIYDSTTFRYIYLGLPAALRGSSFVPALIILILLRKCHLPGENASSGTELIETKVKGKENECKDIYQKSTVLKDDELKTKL
Protocol: For the uptake transporter inhibition assay, cells were washed twice with 100 μL of the appropriate buffer (HK, pH 7.4) for OATP1B1, followed by HBSS (pH 7.4) for (NTCP, OAT1, OAT2v1, OATP1A2, and OATP1B3). Uptake experiments were carried out at 37 ± 1°C in 50 μL of the respective buffer containing the probe substrate and the compound or solvent. […] After the experiment, cells were washed twice with 100 μL of cold appropriate buffer and lysed with 50 μL of 0.1 M NaOH. Radiolabeled probe substrate transport was determined by measuring an aliquot (35 μL) from each well for liquid scintillation counting.

Q: What does the source list for `CC#C[C@@H](CC(=O)O)c1ccc(OCC(C)=C(C)C)cc1` [CPL207280]?
A: half-life at 3 μM [1]: 0.467 h; microsomal CLint at 3 μM [1]: 49.2 µL/min/mg; stability classification in microsomes [1]: unstable compound; average DEG [%] ([1]; 0 min): 100.0%; average DEG [%] ([1]; 20 min): 45.8942%; average DEG [%] ([1]; 40 min): 32.2635%; average DEG [%] ([1]; 60 min): 21.8%; fold less inhibitory potency than TAK-875, OAT2v1 (OAT2v1): at least 10 fold; Accumulation (counts per minute; CPM) HEK293FT-MOCK (OAT2v1; conc 0.10 µM): 34 CPM and 30 CPM; Accumulation (counts per minute; CPM) HEK293FT-OAT2v1 (OAT2v1; conc 0.10 µM): 4632 CPM and 4226 CPM; Accumulation (counts per minute; CPM) HEK293FT-MOCK (OAT2v1; conc 1.00 µM): 35 CPM and 32 CPM; Accumulation (counts per minute; CPM) HEK293FT-OAT2v1 (OAT2v1; conc 1.00 µM): 4766 CPM and 4500 CPM; Accumulation (counts per minute; CPM) HEK293FT-MOCK (OAT2v1; conc 3.00 µM): 30 CPM and 23 CPM; Accumulation (counts per minute; CPM) HEK293FT-OAT2v1 (OAT2v1; conc 3.00 µM): 4371 CPM and 4417 CPM; Accumulation (counts per minute; CPM) HEK293FT-MOCK (OAT2v1; conc 10.00 µM): 27 CPM and 18 CPM; Accumulation (counts per minute; CPM) HEK293FT-OAT2v1 (OAT2v1; conc 10.00 µM): 4079 CPM and 4225 CPM; Accumulation (counts per minute; CPM) HEK293FT-MOCK (OAT2v1; conc 30.00 µM): 32 CPM and 37 CPM; Accumulation (counts per minute; CPM) HEK293FT-OAT2v1 (OAT2v1; conc 30.00 µM): 3998 CPM and 4091 CPM; Accumulation (counts per minute; CPM) HEK293FT-MOCK (OAT2v1; conc 100.00 µM): 28 CPM and 36 CPM; Accumulation (counts per minute; CPM) HEK293FT-OAT2v1 (OAT2v1; conc 100.00 µM): 3763 CPM and 3594 CPM; Accumulation (counts per minute; CPM) HEK293FT-MOCK (OAT2v1; conc 300.00 µM): 35 CPM and 25 CPM; Accumulation (counts per minute; CPM) HEK293FT-OAT2v1 (OAT2v1; conc 300.00 µM): 2566 CPM and 2951 CPM; IC50 (OATP1A2): 118 µM; fold less inhibitory potency than TAK-875, OATP1A2 (OATP1A2): at least 10 fold; Accumulation (counts per minute; CPM) HEK293FT-MOCK (OATP1A2; conc 0.10 µM): 191 CPM and 198 CPM; Accumulation (counts per minute; CPM) HEK293FT-OATP1A2 (OATP1A2; conc 0.10 µM): 9941 CPM and 9363 CPM; Accumulation (counts per minute; CPM) HEK293FT-MOCK (OATP1A2; conc 1.00 µM): 175 CPM and 167 CPM; Accumulation (counts per minute; CPM) HEK293FT-OATP1A2 (OATP1A2; conc 1.00 µM): 9582 CPM and 8309 CPM; Accumulation (counts per minute; CPM) HEK293FT-MOCK (OATP1A2; conc 3.00 µM): 170 CPM and 189 CPM; Accumulation (counts per minute; CPM) HEK293FT-OATP1A2 (OATP1A2; conc 3.00 µM): 9105 CPM and 8526 CPM; Accumulation (counts per minute; CPM) HEK293FT-MOCK (OATP1A2; conc 10.00 µM): 199 CPM and 184 CPM; Accumulation (counts per minute; CPM) HEK293FT-OATP1A2 (OATP1A2; conc 10.00 µM): 8813 CPM and 8062 CPM; Accumulation (counts per minute; CPM) HEK293FT-MOCK (OATP1A2; conc 30.00 µM): 160 CPM and 178 CPM; Accumulation (counts per minute; CPM) HEK293FT-OATP1A2 (OATP1A2; conc 30.00 µM): 6805 CPM and 7468 CPM; Accumulation (counts per minute; CPM) HEK293FT-MOCK (OATP1A2; conc 100.00 µM): 179 CPM and 165 CPM; Accumulation (counts per minute; CPM) HEK293FT-OATP1A2 (OATP1A2; conc 100.00 µM): 5379 CPM and 5182 CPM; Accumulation (counts per minute; CPM) HEK293FT-MOCK (OATP1A2; conc 300.00 µM): 144 CPM and 136 CPM; Accumulation (counts per minute; CPM) HEK293FT-OATP1A2 (OATP1A2; conc 300.00 µM): 2696 CPM and 2783 CPM

Q: Which results are given for `Cc1cc(OCCCS(C)(=O)=O)cc(C)c1-c1cccc(COc2ccc3c(c2)OC[C@H]3CC(=O)O)c1` [TAK-875, fasiglifam, reference compound]?
A: half-life at 3 μM [1]: 3.5 h; microsomal CLint at 3 μM [1]: 6.6 µL/min/mg; stability classification in microsomes [1]: stable compound; average DEG [%] ([1]; 0 min): 100.0%; average DEG [%] ([1]; 20 min): 110.6%; average DEG [%] ([1]; 40 min): 92.5%; average DEG [%] ([1]; 60 min): 85.1%; Accumulation (counts per minute; CPM) HEK293FT-MOCK (OAT2v1; conc 0.10 µM): 37 CPM and 25 CPM; Accumulation (counts per minute; CPM) HEK293FT-OAT2v1 (OAT2v1; conc 0.10 µM): 4606 CPM and 4412 CPM; Accumulation (counts per minute; CPM) HEK293FT-MOCK (OAT2v1; conc 0.30 µM): 30 CPM; Accumulation (counts per minute; CPM) HEK293FT-OAT2v1 (OAT2v1; conc 0.30 µM): 4740 CPM and 4495 CPM; Accumulation (counts per minute; CPM) HEK293FT-MOCK (OAT2v1; conc 1.00 µM): 33 CPM; Accumulation (counts per minute; CPM) HEK293FT-OAT2v1 (OAT2v1; conc 1.00 µM): 4344 CPM and 4183 CPM; Accumulation (counts per minute; CPM) HEK293FT-MOCK (OAT2v1; conc 3.00 µM): 34 CPM and 20 CPM; Accumulation (counts per minute; CPM) HEK293FT-OAT2v1 (OAT2v1; conc 3.00 µM): 4050 CPM and 3892 CPM; Accumulation (counts per minute; CPM) HEK293FT-MOCK (OAT2v1; conc 10.00 µM): 25 CPM and 18 CPM; Accumulation (counts per minute; CPM) HEK293FT-OAT2v1 (OAT2v1; conc 10.00 µM): 3715 CPM and 3589 CPM; Accumulation (counts per minute; CPM) HEK293FT-MOCK (OAT2v1; conc 30.00 µM): 47 CPM and 27 CPM; Accumulation (counts per minute; CPM) HEK293FT-OAT2v1 (OAT2v1; conc 30.00 µM): 3019 CPM and 2844 CPM; Accumulation (counts per minute; CPM) HEK293FT-MOCK (OAT2v1; conc 100.00 µM): 24 CPM and 30 CPM; Accumulation (counts per minute; CPM) HEK293FT-OAT2v1 (OAT2v1; conc 100.00 µM): 1943 CPM and 1847 CPM; IC50 (OAT2v1; transformed HEK cells, up to 300μM, n = 2): 62.8 µM; IC50 (OATP1A2): 10.6 µM; Accumulation (counts per minute; CPM) HEK293FT-MOCK (OATP1A2; conc 0.10 µM): 142 CPM and 152 CPM; Accumulation (counts per minute; CPM) HEK293FT-OATP1A2 (OATP1A2; conc 0.10 µM): 10423 CPM and 10027 CPM; Accumulation (counts per minute; CPM) HEK293FT-MOCK (OATP1A2; conc 0.30 µM): 182 CPM and 209 CPM; Accumulation (counts per minute; CPM) HEK293FT-OATP1A2 (OATP1A2; conc 0.30 µM): 8846 CPM and 9642 CPM; Accumulation (counts per minute; CPM) HEK293FT-MOCK (OATP1A2; conc 1.00 µM): 191 CPM and 201 CPM; Accumulation (counts per minute; CPM) HEK293FT-OATP1A2 (OATP1A2; conc 1.00 µM): 7776 CPM and 7509 CPM; Accumulation (counts per minute; CPM) HEK293FT-MOCK (OATP1A2; conc 3.00 µM): 170 CPM and 194 CPM; Accumulation (counts per minute; CPM) HEK293FT-OATP1A2 (OATP1A2; conc 3.00 µM): 6621 CPM and 5348 CPM; Accumulation (counts per minute; CPM) HEK293FT-MOCK (OATP1A2; conc 10.00 µM): 165 CPM and 156 CPM; Accumulation (counts per minute; CPM) HEK293FT-OATP1A2 (OATP1A2; conc 10.00 µM): 5408 CPM and 5698 CPM; Accumulation (counts per minute; CPM) HEK293FT-MOCK (OATP1A2; conc 30.00 µM): 149 CPM and 181 CPM; Accumulation (counts per minute; CPM) HEK293FT-OATP1A2 (OATP1A2; conc 30.00 µM): 4731 CPM and 4729 CPM; Accumulation (counts per minute; CPM) HEK293FT-MOCK (OATP1A2; conc 100.00 µM): 205 CPM and 204 CPM; Accumulation (counts per minute; CPM) HEK293FT-OATP1A2 (OATP1A2; conc 100.00 µM): 2008 CPM and 2199 CPM
